Reference: patent publication US20260285850A1, “SUBSTITUTED OXAZOLIDINONES AND IMIDAZOLINONES AS HERBICIDES” (FMC CORPORATION, priority 2023, published 2026)

What was measured:
Type in all cases: in vivo
[1] = test system: ragweed (common ragweed, Ambrosia artemisiifolia); assay: Test A postemergence application, visual injury rating 0-100; settings: 10 days
Source text: (§1) Seeds of plant species selected from barnyardgrass (Echinochloa crus-galli), blackgrass (Alopecurus myosuroides), corn (Zea mays), foxtail, giant (giant foxtail, Setaria faberi), green foxtail (Setaria viridis), goosegrass (Eleusine indica), kochia (Bassia scoparia), oat, wild (wild oat, Avena fatua), palmer (palmer amaranth, palmer pigweed, Amaranthus palmeri), ragweed (common ragweed, Ambrosia artemisiifolia), ryegrass, Italian (italian ryegrass, Lolium multiflorum), soybean (Glycine max) and wheat (Triticum aestivum) were planted into a blend of loam soil and sand and treated preemergence with a directed soil spray using test chemicals formulated in a non-phytotoxic solvent mixture which included a surfactant.
(§2) At the same time, plants selected from these crops and weed species and also galium (catchweed bedstraw, Galium aparine) and horseweed (Erigeron canadensis) were planted in pots containing the same blend of loam soil and sand and treated with postemergence applications of test chemicals formulated in the same manner. Plants ranged in height from 2 to 10 cm and were in the one- to two-leaf stage for the postemergence treatment. Treated plants and untreated controls were maintained in a greenhouse for 10 days, after which time all treated plants were compared to untreated controls and visually evaluated for injury. Plant response ratings, summarized in Table A, are based on a 0 to 100 scale where 0 is no effect and 100 is complete control. A dash (-) response means no test result.

corn (Zea mays) [2] = assay: as above; settings: 10 days
Source text: as §1, §2

[3] = test system: ryegrass, Italian (italian ryegrass, Lolium multiflorum); assay: as above; settings: 10 days
Source text: as §1, §2

[4] = test system: blackgrass (Alopecurus myosuroides); assay: as above; settings: 10 days
Source text: as §1, §2

[5] = test system: palmer (palmer amaranth, palmer pigweed, Amaranthus palmeri); assay: as above; settings: 10 days
Source text: as §1, §2

[6] = test system: wheat (Triticum aestivum); assay: as above; settings: 10 days
Source text: as §1, §2

[7] = test system: oat, wild (wild oat, Avena fatua); assay: as above; settings: 10 days
Source text: as §1, §2

[8] = test system: barnyardgrass (Echinochloa crus-galli); assay: as above; settings: 10 days
Source text: as §1, §2

kochia (Bassia scoparia) [9] = assay: as above; settings: 10 days
Source text: as §1, §2

[10] = test system: horseweed (Erigeron canadensis); assay: as above; settings: 10 days
Source text: as §1, §2

[11] = test system: green foxtail (Setaria viridis); assay: as above; settings: 10 days
Source text: as §1, §2

soybean (Glycine max) [12] = assay: as above; settings: 10 days
Source text: as §1, §2

[13] = test system: ducksalad (Heteranthera limosa); assay: Test B flooded paddy test, visual plant response rating 0-100; settings: 250 g ai/ha, Flood, applied to paddy water, evaluated after 13 days
Protocol: (§3) Plant species in the flooded paddy test selected from barnyardgrass (Echinochloa crusgalli), ducksalad (Heteranthera limosa), rice (Oryza sativa), and sedge, umbrella (small-flower umbrella sedge, Cyperus difformis) were grown to the 2-leaf stage for testing. At time of treatment, test pots were flooded to 3 cm above the soil surface, treated by application of test compounds directly to the paddy water, and then maintained at that water depth for the duration of the test. Treated plants and controls were maintained in a greenhouse for 13 days, after which time all species were compared to controls and visually evaluated. […] A dash (-) response means no test result.

[14] = test system: sedge, umbrella (small-flower umbrella sedge, Cyperus difformis); assay: as above; settings: 250 g ai/ha, Flood, applied to paddy water, evaluated after 13 days
Protocol: as §3

[15] = test system: barnyardgrass (Echinochloa crusgalli); assay: as above; settings: 250 g ai/ha, Flood, applied to paddy water, evaluated after 13 days
Protocol: as §3

rice (Oryza sativa) = assay: as above; settings: 250 g ai/ha, Flood, applied to paddy water, evaluated after 13 days
Protocol: as §3

[16] = test system: ragweed (common ragweed, Ambrosia artemisiifolia); assay: Test A preemergence soil spray, visual injury rating 0-100; settings: 10 days, 0 = no effect, 100 = complete control
Source text: as §1, §2

corn (Zea mays) [17] = assay: as above; settings: 10 days, 0 = no effect, 100 = complete control
Source text: as §1, §2

[18] = test system: ryegrass, Italian (italian ryegrass, Lolium multiflorum); assay: as above; settings: 10 days, 0 = no effect, 100 = complete control
Source text: as §1, §2

[19] = test system: blackgrass (Alopecurus myosuroides); assay: as above; settings: 10 days, 0 = no effect, 100 = complete control
Source text: as §1, §2

[20] = test system: palmer (palmer amaranth, palmer pigweed, Amaranthus palmeri); assay: as above; settings: 10 days, 0 = no effect, 100 = complete control
Source text: as §1, §2

[21] = test system: wheat (Triticum aestivum); assay: as above; settings: 10 days, 0 = no effect, 100 = complete control
Source text: as §1, §2

[22] = test system: oat, wild (wild oat, Avena fatua); assay: as above; settings: 10 days, 0 = no effect, 100 = complete control
Source text: as §1, §2

[23] = test system: barnyardgrass (Echinochloa crus-galli); assay: as above; settings: 10 days, 0 = no effect, 100 = complete control
Source text: as §1, §2

kochia (Bassia scoparia) [24] = assay: as above; settings: 10 days, 0 = no effect, 100 = complete control
Source text: as §1, §2

[25] = test system: green foxtail (Setaria viridis); assay: as above; settings: 10 days, 0 = no effect, 100 = complete control
Source text: as §1, §2

soybean (Glycine max) [26] = assay: as above; settings: 10 days, 0 = no effect, 100 = complete control
Source text: as §1, §2

[27] = 31 g ai/ha, postemergence, 0 = no effect, 100 = complete control
[28] = Postemergence, 125 g ai/ha, 0 is no effect, 100 is complete control

## CCOC(=O)C1CCC(NC(=O)C2(C)CN(c3cc(F)cc(F)c3)C(=O)O2)C1 (centres unmarked) [Compound 11]
[1]; [27]
  Ragweed plant response rating (0-100): 0
[1]; [28]
  Ragweed plant response rating (0 to 100 scale): 0
Corn (Zea mays) [2]; [27]
  Corn plant response rating (0-100): 10
Corn (Zea mays) [2]; [28]
  Corn plant response rating (0 to 100 scale): 80
[3]; [27]
  Ryegrass, Italian plant response rating (0-100): 50
[3]; [28]
  Ryegrass, Italian plant response rating (0 to 100 scale): 70
[4]; [27]
  Blackgrass plant response rating (0-100): 30
[4]; [28]
  Blackgrass plant response rating (0 to 100 scale): 90
[5]; [27]
  Amaranth, Palmer plant response rating (0-100): 30
[5]; [28]
  Amaranth, Palmer / Pigweed, Palmer plant response rating (0 to 100 scale): 60
[6]; [27]
  Wheat plant response rating (0-100): 80
[6]; [28]
  Wheat plant response rating (0 to 100 scale): 90
[7]; [27]
  Oat, Wild plant response rating (0-100): 80
[7]; [28]
  Oat, Wild plant response rating (0 to 100 scale): 90
[8]; [27]
  Barnyardgrass plant response rating (0-100): 60
[8]; [28]
  Barnyardgrass plant response rating (0 to 100 scale): 100
Kochia (Bassia scoparia) [9]; [27]
  Kochia plant response rating (0-100): 20
Kochia (Bassia scoparia) [9]; [28]
  Kochia plant response rating (0 to 100 scale): 80
[10]; [27]
  Horseweed plant response rating (0-100): 30
[10]; [28]
  Horseweed plant response rating (0 to 100 scale): 20
[11]; [27]
  Foxtail, Green plant response rating (0-100): 30
[11]; [28]
  Foxtail, Green plant response rating (0 to 100 scale): 90
Soybean (Glycine max) [12]; [27]
  Soybean plant response rating (0-100): 50
Soybean (Glycine max) [12]; [28]
  Soybean plant response rating (0 to 100 scale): 60
[13]
  Plant response rating, Ducksalad (0 to 100 scale, 0 is no effect and 100 is complete control): 65
[14]
  Plant response rating, Sedge, Umbrella (0 to 100 scale, 0 is no effect and 100 is complete control): 60
[15]
  Plant response rating, Barnyardgrass (0 to 100 scale, 0 is no effect and 100 is complete control): 50
Rice (Oryza sativa)
  Plant response rating, Rice (0 to 100 scale, 0 is no effect and 100 is complete control): 25
[16]; 31 g ai/ha
  Ragweed plant response rating (0-100): 0
[16]; 125 g ai/ha
  Ragweed plant response rating (0 to 100 scale): 70
Corn (Zea mays) [17]; 31 g ai/ha
  Corn plant response rating (0-100): 0
Corn (Zea mays) [17]; 125 g ai/ha
  Corn plant response rating (0 to 100 scale): 50
[18]; 31 g ai/ha
  Ryegrass, Italian plant response rating (0-100): 40
[18]; 125 g ai/ha
  Ryegrass, Italian plant response rating (0 to 100 scale): 90
[19]; 31 g ai/ha
  Blackgrass plant response rating (0-100): 20
[19]; 125 g ai/ha
  Blackgrass plant response rating (0 to 100 scale): 90
[20]; 31 g ai/ha
  Amaranth, Palmer plant response rating (0-100): 0
[20]; 125 g ai/ha
  Amaranth, Palmer plant response rating (0 to 100 scale): 30
[21]; 31 g ai/ha
  Wheat plant response rating (0-100): 90
[21]; 125 g ai/ha
  Wheat plant response rating (0 to 100 scale): 100
[22]; 31 g ai/ha
  Oat, Wild plant response rating (0-100): 20
[22]; 125 g ai/ha
  Oat, Wild plant response rating (0 to 100 scale): 80
[23]; 31 g ai/ha
  Barnyardgrass plant response rating (0-100): 0
[23]; 125 g ai/ha
  Barnyardgrass plant response rating (0 to 100 scale): 100
Kochia (Bassia scoparia) [24]; 31 g ai/ha
  Kochia plant response rating (0-100): 0
Kochia (Bassia scoparia) [24]; 125 g ai/ha
  Kochia plant response rating (0 to 100 scale): 50
[25]; 31 g ai/ha
  Foxtail, Green plant response rating (0-100): 0
[25]; 125 g ai/ha
  Foxtail, Green plant response rating (0 to 100 scale): 100
Soybean (Glycine max) [26]; 31 g ai/ha
  Soybean plant response rating (0-100): 0
Soybean (Glycine max) [26]; 125 g ai/ha
  Soybean plant response rating (0 to 100 scale): 20
